According to patent US20250136606A1, “MODULATORS OF TRPML, THEIR COMPOSITIONS AND METHODS OF USE” (Caraway Therapeutics, Inc., priority 2021, published 2025):

What was measured:
Type in all cases: cell-based
Details in all cases: fluorescent calcium assay
[1] = biological target: T1, TRPML2 (Homo sapiens, UniProt Q8IZK6); experiment: Fluorescent TRPML2 assay (performed as for TRPML1, substituting the TRPML2 subtype)
T1 construct: expressed in transfected cells
T1 sequence (Q8IZK6 1-566): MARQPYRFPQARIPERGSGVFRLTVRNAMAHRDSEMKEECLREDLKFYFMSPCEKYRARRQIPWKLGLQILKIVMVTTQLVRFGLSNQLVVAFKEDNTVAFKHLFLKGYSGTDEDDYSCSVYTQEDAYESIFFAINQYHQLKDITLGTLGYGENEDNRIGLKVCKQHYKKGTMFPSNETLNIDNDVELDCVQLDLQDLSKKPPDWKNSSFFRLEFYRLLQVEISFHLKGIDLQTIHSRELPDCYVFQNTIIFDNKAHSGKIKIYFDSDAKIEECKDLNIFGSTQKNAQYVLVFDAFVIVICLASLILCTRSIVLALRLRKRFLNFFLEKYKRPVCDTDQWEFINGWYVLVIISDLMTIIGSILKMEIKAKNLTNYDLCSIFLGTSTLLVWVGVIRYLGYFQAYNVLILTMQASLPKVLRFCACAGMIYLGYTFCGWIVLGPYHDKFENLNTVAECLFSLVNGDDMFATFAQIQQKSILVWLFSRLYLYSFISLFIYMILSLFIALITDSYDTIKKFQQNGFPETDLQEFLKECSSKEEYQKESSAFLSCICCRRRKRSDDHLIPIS
Outline: (§1)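 Agonist activity is scored as percent of plate controls from Fluo4 fluorescence after dye-loaded, doxycycline-induced HEK-293 Trex cells meet compound in high-calcium (10 mM) Ringer's. Compounds run in half-log dilutions from 20 micromolar final, in triplicate.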

[2] = biological target: T2, TRPML3 (Homo sapiens, UniProt Q8TDD5); experiment: Fluorescent TRPML3 assay (performed as for TRPML1, substituting the TRPML3 subtype)
T2 construct: expressed in transfected cells
T2 sequence (Q8TDD5 1-553): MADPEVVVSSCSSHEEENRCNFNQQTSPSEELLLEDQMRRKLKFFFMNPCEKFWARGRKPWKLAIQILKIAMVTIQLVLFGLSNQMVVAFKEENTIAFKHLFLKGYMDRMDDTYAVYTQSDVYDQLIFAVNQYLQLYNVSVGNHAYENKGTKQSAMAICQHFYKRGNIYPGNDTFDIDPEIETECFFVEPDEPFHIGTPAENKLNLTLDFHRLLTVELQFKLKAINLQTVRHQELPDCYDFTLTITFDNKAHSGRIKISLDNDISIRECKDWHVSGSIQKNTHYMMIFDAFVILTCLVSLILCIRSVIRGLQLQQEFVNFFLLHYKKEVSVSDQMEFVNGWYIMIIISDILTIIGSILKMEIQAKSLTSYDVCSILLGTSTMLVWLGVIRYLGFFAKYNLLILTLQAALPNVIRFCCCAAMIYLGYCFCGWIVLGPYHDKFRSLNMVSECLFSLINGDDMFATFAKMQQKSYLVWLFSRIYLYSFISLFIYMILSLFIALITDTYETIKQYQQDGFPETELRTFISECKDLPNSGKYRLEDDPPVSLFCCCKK
Outline: as §1

[3] = biological target: TRPML1 (Homo sapiens, UniProt Q9GZU1); experiment: Fluorescent TRPML1 assay (Fluo4-AM calcium fluorescence in doxycycline-induced HEK-293 Trex cells)
TRPML1, sequence (Q9GZU1 whole entry L15A/L16A/L577A/L578A, form open): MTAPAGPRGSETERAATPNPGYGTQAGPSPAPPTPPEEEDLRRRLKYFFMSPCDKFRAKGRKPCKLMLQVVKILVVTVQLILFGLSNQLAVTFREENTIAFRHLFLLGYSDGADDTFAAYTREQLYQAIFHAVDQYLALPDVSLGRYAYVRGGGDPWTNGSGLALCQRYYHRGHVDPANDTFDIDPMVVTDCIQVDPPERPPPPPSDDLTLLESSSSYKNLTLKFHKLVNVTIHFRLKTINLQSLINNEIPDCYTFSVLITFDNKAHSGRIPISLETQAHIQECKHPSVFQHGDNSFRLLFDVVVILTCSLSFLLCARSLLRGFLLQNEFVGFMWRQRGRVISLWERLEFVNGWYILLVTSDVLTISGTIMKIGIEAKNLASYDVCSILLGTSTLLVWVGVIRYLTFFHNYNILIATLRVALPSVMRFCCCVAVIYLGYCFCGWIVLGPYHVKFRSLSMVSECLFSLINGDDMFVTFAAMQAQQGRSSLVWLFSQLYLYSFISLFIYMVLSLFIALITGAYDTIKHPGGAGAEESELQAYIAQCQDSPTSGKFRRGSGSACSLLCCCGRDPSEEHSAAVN
Outline: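 hTRPML1 (mutated for cell-surface expression) in HEK-293 Trex, dox 0.5 ug/mL o/n; Fluo4-AM 1 uM ~60 min, then ~60 min de-esterification, dark; modified Ringer's + 10 mM Ca. Cmpds 20 uM–6 nM final, half-log, n=3. Ex480/Em540; % activity vs ctrls; EC50 by nonlinear regression.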

EC50 [1] [nM] | EC50 [2] [nM] | EC50 [3] [nM] | Structure (SMILES)
> 2000 | 500 to 2000 | 500 to 2000 | CC(C)(CF)OC(=O)N1CCN(c2ncnc3c2c(-c2ccccc2F)cn3-c2cncnc2)CC1 [Compound 173, 1-fluoro-2-methylpropan-2-yl 4-(5-(2-fluorophenyl)-7-(pyrimidin-5-yl)-7H-pyrrolo[2,3-d]pyrimidin-4-yl)piperazine-1-carboxylate]
500 to 2000 | 100 to 500 | 100 to 500 | C[C@@H]1CN(c2ncnc3c2c(-c2ccccc2F)cn3-c2cnn(C)c2)[C@@H](C)CN1C(=O)OC(C)(C)C [Compound 176, tert-butyl (2R,5S)-4-(5-(2-fluorophenyl)-7-(1-methyl-1H-pyrazol-4-yl)-7H-pyrrolo[2,3-d]pyrimidin-4-yl)-2,5-dimethylpiperazine-1-carboxylate]
> 2000 | 500 to 2000 | 500 to 2000 | Cc1cncc(-n2cc(-c3cccnc3)c3c(N4CCN(C(=O)OC(C)(C)C)C[C@@H]4C)ncnc32)c1 [Compound 177, tert-butyl (S)-3-methyl-4-(7-(5-methylpyridin-3-yl)-5-(pyridin-3-yl)-7H-pyrrolo[2,3-d]pyrimidin-4-yl)piperazine-1-carboxylate]
> 2000 | 500 to 2000 | 100 to 500 | Cc1cncc(-n2cc(-c3cccnc3)c3c(N4C[C@@H](C)N(C(=O)OC(C)(C)C)C[C@@H]4C)ncnc32)c1 [Compound 178, tert-butyl (2R,5S)-2,5-dimethyl-4-(7-(5-methylpyridin-3-yl)-5-(pyridin-3-yl)-7H-pyrrolo[2,3-d]pyrimidin-4-yl)piperazine-1-carboxylate]
> 2000 | 100 to 500 | 500 to 2000 | C[C@@H]1CN(c2ncnc3c2c(-c2cccnc2)cn3-c2cncc(C(F)(F)F)c2)[C@@H](C)CN1C(=O)OC(C)(C)C [Compound 179, tert-butyl (2R,5S)-2,5-dimethyl-4-(5-(pyridin-3-yl)-7-(5-(trifluoromethyl)pyridin-3-yl)-7H-pyrrolo[2,3-d]pyrimidin-4-yl)piperazine-1-carboxylate]
500 to 2000 | < 100 | 100 to 500 | Cc1nccnc1-c1cn(-c2ccc(F)c(F)c2)c2ncnc(N3C[C@@H](C)N(C(=O)OC(C)(C)C)C[C@@H]3C)c12 [Compound 180, tert-butyl (2R,5S)-4-(7-(3,4-difluorophenyl)-5-(3-methylpyrazin-2-yl)-7H-pyrrolo[2,3-d]pyrimidin-4-yl)-2,5-dimethylpiperazine-1-carboxylate]
500 to 2000 | 100 to 500 | 100 to 500 | Cc1nccnc1-c1cn(-c2ccc(F)cc2)c2ncnc(N3C[C@@H](C)N(C(=O)OC(C)(C)C)C[C@@H]3C)c12 [Compound 181, tert-butyl (2R,5S)-4-(7-(4-fluorophenyl)-5-(3-methylpyrazin-2-yl)-7H-pyrrolo[2,3-d]pyrimidin-4-yl)-2,5-dimethylpiperazine-1-carboxylate]
> 2000 | 500 to 2000 | 500 to 2000 | Cc1nccnc1-c1cn(-c2ccccc2)c2ncnc(N3C[C@@H](C)N(C(=O)OC(C)(C)C)C[C@@H]3C)c12 [Compound 182, tert-butyl (2R,5S)-2,5-dimethyl-4-(5-(3-methylpyrazin-2-yl)-7-phenyl-7H-pyrrolo[2,3-d]pyrimidin-4-yl)piperazine-1-carboxylate]
500 to 2000 | 100 to 500 | 100 to 500 | C[C@H]1CN(C(=O)OC(C)(C)C(F)(F)F)CCN1c1ncnc2c1c(-c1ccccc1)cn2-c1cnn(C)c1 [Compound 183, 1,1,1-trifluoro-2-methylpropan-2-yl(S)-3-methyl-4-(7-(1-methyl-1H-pyrazol-4-yl)-5-phenyl-7H-pyrrolo[2,3-d]pyrimidin-4-yl)piperazine-1-carboxylate]
500 to 2000 | 100 to 500 | 100 to 500 | Cc1nccnc1-c1cn(-c2ccc(Cl)cc2)c2ncnc(N3C[C@@H](C)N(C(=O)OC(C)(C)C)C[C@@H]3C)c12 [Compound 184, tert-butyl (2R,5S)-4-(7-(4-chlorophenyl)-5-(3-methylpyrazin-2-yl)-7H-pyrrolo[2,3-d]pyrimidin-4-yl)-2,5-dimethylpiperazine-1-carboxylate]
500 to 2000 | < 100 | < 100 | C[C@@H]1CN(c2ncnc3c2c(-c2ccccc2F)cn3-c2cnn(C)c2)[C@@H](C)CN1C(=O)OC(C)(C)CF [Compound 185, 1-fluoro-2-methylpropan-2-yl (2R,5S)-4-(5-(2-fluorophenyl)-7-(1-methyl-1H-pyrazol-4-yl)-7H-pyrrolo[2,3-d]pyrimidin-4-yl)-2,5-dimethylpiperazine-1-carboxylate]
100 to 500 | < 100 | < 100 | C[C@@H]1CN(c2ncnc3c2c(-c2ccccc2F)cn3-c2cnn(C)c2)[C@@H](C)CN1C(=O)OC(C)(C)C(F)(F)F [Compound 186, 1,1,1-trifluoro-2-methylpropan-2-yl (2R,5S)-4-(5-(2-fluorophenyl)-7-(1-methyl-1H-pyrazol-4-yl)-7H-pyrrolo[2,3-d]pyrimidin-4-yl)-2,5-dimethylpiperazine-1-carboxylate]
100 to 500 | 100 to 500 | 100 to 500 | CC1CN(C(=O)OC(C)(C)C)CCN1c1nccc2c1c(-c1ccccn1)cn2-c1cccc(Cl)c1 (stereo not drawn) [Compound 187, tert-butyl 4-(1-(3-chlorophenyl)-3-(pyridin-2-yl)-1H-pyrrolo[3,2-c]pyridin-4-yl)-3-methylpiperazine-1-carboxylate]
500 to 2000 | 100 to 500 | 100 to 500 | C[C@H]1CN(c2ncnc3c2c(C2CC2)cn3-c2cc(F)cc(F)c2)CCN1C(=O)OC(C)(C)C [Compound 188, tert-Butyl (S)-4-(5-cyclopropyl-7-(3,5-difluorophenyl)-7H-pyrrolo[2,3-d]pyrimidin-4-yl)-2-methylpiperazine-1-carboxylate]
500 to 2000 | 100 to 500 | 500 to 2000 | CC1CN(C(=O)OC(C)(C)C)CCN1c1nccc2c1c(-c1cnccn1)cn2-c1cccc(Cl)c1 (stereo not drawn) [Compound 190, tert-Butyl 4-(1-(3-chlorophenyl)-3-(pyrazin-2-yl)-1H-pyrrolo[3,2-c]pyridin-4-yl)-3-methylpiperazine-1-carboxylate]
500 to 2000 | 100 to 500 | 100 to 500 | C[C@H]1CN(C(=O)OC(C)(C)CF)CCN1c1ncnc2c1c(-c1ccccc1)cn2-c1cnn(C)c1 [Compound 191, 1-fluoro-2-methylpropan-2-yl (S)-3-methyl-4-(7-(1-methyl-1H-pyrazol-4-yl)-5-phenyl-7H-pyrrolo[2,3-d]pyrimidin-4-yl)piperazine-1-carboxylate]
100 to 500 | < 100 | < 100 | C[C@@H]1CN(c2ncnc3c2c(-c2ccccc2F)cn3-c2ccccn2)CCN1C(=O)OC(C)(C)C [Compound 192, tert-butyl (R)-4-(5-(2-fluorophenyl)-7-(pyridin-2-yl)-7H-pyrrolo[2,3-d]pyrimidin-4-yl)-2-methylpiperazine-1-carboxylate]
100 to 500 | < 100 | < 100 | C[C@@H]1CN(c2ncnc3c2c(N2CCCC2)cn3-c2cccc(Cl)c2)CCN1C(=O)OC(C)(C)C [Compound 193, tert-butyl (R)-4-(7-(3-chlorophenyl)-5-(pyrrolidin-1-yl)-7H-pyrrolo[2,3-d]pyrimidin-4-yl)-2-methylpiperazine-1-carboxylate]
100 to 500 | 100 to 500 | 100 to 500 | C[C@H]1CN(c2ncnc3c2c(N2CCCC2)cn3-c2cccc(Cl)c2)CCN1C(=O)OC(C)(C)C [Compound 194, tert-Butyl (S)-4-(7-(3-chlorophenyl)-5-(pyrrolidin-1-yl)-7H-pyrrolo[2,3-d]pyrimidin-4-yl)-2-methylpiperazine-1-carboxylate]
